Measurements: PMC7018746, “An efficient and targeted synthetic approach towards new highly substituted 6-amino-pyrazolo[1,5-a]pyrimidines with α-glucosidase inhibitory activity” (Scientific Reports, 2020)
Read-outs that look alike come from different tables or passages of the source.

Legend:
[1] = molecular target: T1, α-glucosidase (Saccharomyces cerevisiae, EC.3.2.1.20) (Saccharomyces cerevisiae, UniProt P53341); experiment: biochemical; type: biochemical; conditions: mean ± SD, at least three experiments, read-out: IC50 (µM), in vitro α-glucosidase inhibitory activity
T1 construct: purchased Sigma-Aldrich
Experimental: α-Glucosidase enzyme (EC3.2.1.20, Saccharomyces cerevisiae, 20 U/mg) and substrate (p-nitrophenyl glucopyranoside) were purchased from Sigma-Aldrich. […] Finally, the change in absorbance was measured at 405 nm by using spectrophotometer (Gen5, Power wave xs2, BioTek, America). DMSO (10% final concentration) and acarbose were used respectively as control and standard drug. The percentage of enzyme inhibitionwas calculated and IC50 values were obtained from non-linear regression curve using the Logit method.

T1 sequence (P53341 whole entry): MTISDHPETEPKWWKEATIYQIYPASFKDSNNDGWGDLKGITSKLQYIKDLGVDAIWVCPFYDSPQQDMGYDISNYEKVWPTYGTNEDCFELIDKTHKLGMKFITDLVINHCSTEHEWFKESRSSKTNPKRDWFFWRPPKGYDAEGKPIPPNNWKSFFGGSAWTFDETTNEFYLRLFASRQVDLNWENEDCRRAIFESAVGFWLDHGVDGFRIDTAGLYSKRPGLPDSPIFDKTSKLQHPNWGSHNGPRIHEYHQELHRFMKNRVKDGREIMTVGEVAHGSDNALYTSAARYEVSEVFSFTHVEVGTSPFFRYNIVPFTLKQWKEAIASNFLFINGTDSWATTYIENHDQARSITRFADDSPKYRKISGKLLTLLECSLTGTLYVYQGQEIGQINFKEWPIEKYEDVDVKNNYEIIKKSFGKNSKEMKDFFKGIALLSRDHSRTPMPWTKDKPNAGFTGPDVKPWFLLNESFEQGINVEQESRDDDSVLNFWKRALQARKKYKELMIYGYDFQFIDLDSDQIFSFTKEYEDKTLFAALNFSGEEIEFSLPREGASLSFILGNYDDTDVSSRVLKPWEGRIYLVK

Work on `COc1ccc(NC(=O)c2c(Nc3ccccc3)nn3c(-c4ccc(Br)cc4)c(N)c(-c4ccccc4)nc23)cc1` [3k, 6-Amino-7-(4-bromophenyl)-N-(4-methoxyphenyl)-5-phenyl-2-(phenylamino)pyrazolo[1,5-a]pyrimidine-3-carboxamide] yielded an IC50 ([1]; Table 1, compounds 3a-z) of 57.4 ± 3.8 µM and a melting point of 256 to 258 °C.
`COc1ccc(NC(=O)c2c(Nc3ccccc3)nn3c(-c4ccc(Cl)cc4)c(N)c(-c4ccc(C)cc4)nc23)cc1` [3l, 6-Amino-7-(4-chlorophenyl)-N-(4-methoxyphenyl)-2-(phenylamino)-5-p-tolylpyrazolo[1,5-a]pyrimidine-3-carboxamide] gave an IC50 ([1]; Table 1, compounds 3a-z) of 49.3 ± 3.3 µM and a melting point of 263 to 265 °C.
Work on `Nc1c(-c2ccc(Cl)cc2)nc2c(C(=O)Nc3ccc(Cl)cc3)c(Nc3ccccc3)nn2c1-c1cccs1` [3z, 6-Amino-N,5-bis(4-chlorophenyl)-2-(phenylamino)-7-(thiophen-2-yl)pyrazolo[1,5-a]pyrimidine-3-carboxamide] yielded an IC50 ([1]; Table 1, compounds 3a-z) of 19.3 ± 0.9 µM and a melting point of 274 to 276 °C.
In the case of `COc1ccc(-c2nc3c(C(=O)Nc4ccc(Cl)cc4)c(Nc4ccccc4)nn3c(-c3ccccc3)c2N)cc1` [3w, 6-Amino-N-(4-chlorophenyl)-5-(4-methoxyphenyl)-7-phenyl-2-(phenylamino)pyrazolo[1,5-a]pyrimidine-3-carboxamide], the IC50 ([1]; Table 1, compounds 3a-z) is reported as 53.7 ± 3.4 µM and the melting point is reported as 255 to 257 °C.
Compound `COc1ccc(NC(=O)c2c(Nc3ccccc3)nn3c(-c4ccc(Cl)cc4)c(N)c(-c4ccc(OC)cc4)nc23)cc1` [3o, 6-Amino-7-(4-chlorophenyl)-N,5-bis(4-methoxyphenyl)-2-(phenylamino)pyrazolo[1,5-a]pyrimidine-3-carboxamide] has an IC50 ([1]; Table 1, compounds 3a-z) of 56.2 ± 3.2 µM and a melting point of 268 to 269 °C.
Work on `Cc1ccc(-c2nc3c(C(=O)Nc4ccc(Cl)cc4)c(Nc4ccccc4)nn3c(-c3ccc(Cl)cc3)c2N)cc1` [3u, 6-Amino-N,7-bis(4-chlorophenyl)-2-(phenylamino)-5-p-tolylpyrazolo[1,5-a]pyrimidine-3-carboxamide] yielded an IC50 ([1]; Table 1, compounds 3a-z) of 55.6 ± 3.6 µM and a melting point of 281 to 282 °C.
`Nc1c(-c2ccc(Cl)cc2)nc2c(C(=O)Nc3ccccc3)c(Nc3ccccc3)nn2c1-c1ccccc1` [3g, 6-Amino-5-(4-chlorophenyl)-N,7-diphenyl-2-(phenylamino)pyrazolo[1,5-a]pyrimidine-3-carboxamide] showed an IC50 ([1]; Table 1, compounds 3a-z) of 75.6 ± 5 µM and a melting point of 285 to 286 °C.
With `CCOC(=O)c1c(-c2ccccc2)nn2c(-c3ccccc3)c(N)c(-c3ccc(OC)cc3)nc12` [3ae, Ethyl 6-amino-5-(4-methoxyphenyl)-2,7-diphenylpyrazolo[1,5-a]pyrimidine-3-carboxylate] the IC50 ([1]; Table 2, compounds 3aa-ai) was 116 ± 1.8 µM and the melting point was 189 to 190 °C.
Work on `COc1ccc(NC(=O)c2c(Nc3ccccc3)nn3c(-c4ccccc4)c(N)c(-c4ccc(Cl)cc4)nc23)cc1` [3p, 6-Amino-5-(4-chlorophenyl)-N-(4-methoxyphenyl)-7-phenyl-2-(phenylamino)pyrazolo[1,5-a]pyrimidine-3-carboxamide] yielded an IC50 ([1]; Table 1, compounds 3a-z) of 33.2 ± 2.1 µM and a melting point of 245 to 246 °C.
`Nc1c(-c2ccccc2)nc2c(C(=O)Nc3ccc(Cl)cc3)c(Nc3ccccc3)nn2c1-c1ccc(Cl)cc1` [3s, 6-Amino-N,7-bis(4-chlorophenyl)-5-phenyl-2-(phenylamino)pyrazolo[1,5-a]pyrimidine-3-carboxamide] showed an IC50 ([1]; Table 1, compounds 3a-z) of 42.3 ± 3.1 µM and a melting point of 274 to 275 °C.
Work on `Nc1c(-c2ccc(Cl)cc2)nc2c(C(=O)Nc3ccc(Cl)cc3)c(Nc3ccccc3)nn2c1-c1ccc(Cl)cc1` [3y, 6-Amino-N,5,7-tris(4-chlorophenyl)-2-(phenylamino)pyrazolo[1,5-a]pyrimidine-3-carboxamide] yielded an IC50 ([1]; Table 1, compounds 3a-z) of 38.2 ± 2.8 µM and a melting point of 268 to 270 °C.
Work on `COc1ccc(NC(=O)c2c(Nc3ccccc3)nn3c(-c4ccc(Cl)cc4)c(N)c(-c4ccccc4)nc23)cc1` [3j, 6-Amino-7-(4-chlorophenyl)-N-(4-methoxyphenyl)-5-phenyl-2-(phenylamino)pyrazolo[1,5-a]pyrimidine-3-carboxamide] yielded an IC50 ([1]; Table 1, compounds 3a-z) of 30.3 ± 2.1 µM and a melting point of 217 to 218 °C.
`CCOC(=O)c1c(-c2ccccc2)nn2c(-c3ccccc3)c(N)c(-c3ccc(Cl)cc3)nc12` [3ag, Ethyl 6-amino-5-(4-chlorophenyl)-2,7-diphenylpyrazolo[1,5-a]pyrimidine-3-carboxylate] showed an IC50 ([1]; Table 2, compounds 3aa-ai) of 201 ± 4.2 µM and a melting point of 238 to 239 °C.
With `COc1ccc(-c2nc3c(C(=O)Nc4ccccc4)c(Nc4ccccc4)nn3c(-c3ccccc3)c2N)cc1` [3e, 6-Amino-5-(4-methoxyphenyl)-N,7-diphenyl-2-(phenylamino)pyrazolo[1,5-a]pyrimidine-3-carboxamide] the IC50 ([1]; Table 1, compounds 3a-z) was 63.3 ± 4.4 µM and the melting point was 257 to 259 °C.
With `Nc1c(-c2ccc(Cl)cc2)nc2c(C(=O)Nc3ccccc3)c(Nc3ccccc3)nn2c1-c1ccc(Cl)cc1` [3h, 6-Amino-5,7-bis(4-chlorophenyl)-N-phenyl-2-(phenylamino)pyrazolo[1,5-a]pyrimidine-3-carboxamide] the IC50 ([1]; Table 1, compounds 3a-z) was 25.7 ± 1.1 µM and the melting point was 281 to 283 °C.
For `CCOC(=O)c1c(-c2ccccc2)nn2c(-c3cccs3)c(N)c(-c3ccc(Cl)cc3)nc12` [3ai, Ethyl 6-amino-5-(4-chlorophenyl)-2-phenyl-7-(thiophen-2-yl)pyrazolo[1,5-a]pyrimidine-3-carboxylate], the IC50 ([1]; Table 2, compounds 3aa-ai) was 153 ± 5 µM and the melting point was 192 to 193 °C.
In the case of `CCOC(=O)c1c(-c2ccccc2)nn2c(-c3ccc(Cl)cc3)c(N)c(-c3ccc(C)cc3)nc12` [3ac, Ethyl 6-amino-7-(4-chlorophenyl)-2-phenyl-5-p-tolylpyrazolo[1,5-a]pyrimidine-3-carboxylate], the IC50 ([1]; Table 2, compounds 3aa-ai) is reported as 185 ± 6 µM and the melting point is reported as 221 to 223 °C.
With `COc1ccc(NC(=O)c2c(Nc3ccccc3)nn3c(-c4cccs4)c(N)c(-c4ccc(Cl)cc4)nc23)cc1` [3r, 6-Amino-5-(4-chlorophenyl)-N-(4-methoxyphenyl)-2-(phenylamino)-7-(thiophen-2-yl)pyrazolo[1,5-a]pyrimidine-3-carboxamide] the IC50 ([1]; Table 1, compounds 3a-z) was 18.4 ± 0.6 µM and the melting point was 240 to 242 °C.
For `Nc1c(-c2ccc(Cl)cc2)nc2c(C(=O)Nc3ccccc3)c(Nc3ccccc3)nn2c1-c1cccs1` [3i, 6-Amino-5-(4-chlorophenyl)-N-phenyl-2-(phenylamino)-7-(thiophen-2-yl)pyrazolo[1,5-a]pyrimidine-3-carboxamide], the IC50 ([1]; Table 1, compounds 3a-z) was 28.1 ± 1.2 µM and the melting point was 270 to 271 °C.
Compound `CCOC(=O)c1c(-c2ccccc2)nn2c(-c3ccc(Br)cc3)c(N)c(-c3ccccc3)nc12` [3ab, Ethyl 6-amino-7-(4-bromophenyl)-2,5-diphenylpyrazolo[1,5-a]pyrimidine-3-carboxylate] has an IC50 ([1]; Table 2, compounds 3aa-ai) of 150 ± 4 µM and a melting point of 201 to 202 °C.
`COc1ccc(NC(=O)c2c(Nc3ccccc3)nn3c(-c4ccc(Cl)cc4)c(N)c(-c4ccc(Cl)cc4)nc23)cc1` [3q, 6-Amino-5,7-bis(4-chlorophenyl)-N-(4-methoxyphenyl)-2-(phenylamino)pyrazolo[1,5-a]pyrimidine-3-carboxamide] gave an IC50 ([1]; Table 1, compounds 3a-z) of 36.5 ± 2.5 µM and a melting point of 245 to 246 °C.
`Nc1c(-c2ccccc2)nc2c(C(=O)Nc3ccccc3)c(Nc3ccccc3)nn2c1-c1ccc(Br)cc1` [3b, 6-Amino-7-(4-bromophenyl)-N,5-diphenyl-2-(phenylamino)pyrazolo[1,5-a]pyrimidine-3-carboxamide] gave an IC50 ([1]; Table 1, compounds 3a-z) of 40 ± 2.9 µM and a melting point of 235 to 237 °C.
